Assays:
Type in all cases: in vivo
[1] = test system: Echinochloa oryzacola Vasing.; test: Test Example 2: herbicidal activity, application during weed generation in submerged conditions (symbol A); conditions: Table 23; application herbicide amount 320 g/ha; grade 0-5 by criteria of Test Example 1
Outline: (§1)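 Read-out: herbicidal effect on each species rated on a visual scale 3 weeks after treatment. Plants were raised together from seed in flooded alluvial soil (4 cm water) at 25° C. to 30° C. and treated at one to two leaves by water-surface application of diluted emulsion.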

Scirpus juncoides = test: Test Example 2: herbicidal activity, application during weed generation in submerged conditions (symbol B); conditions: Table 23; application herbicide amount 320 g/ha; grade 0-5 by criteria of Test Example 1
Outline: as §1

[2] = test system: Echinochloa crus-galli var. crus-galli; test: Test Example 3: herbicidal effect by foliage application, Wagner pot (symbol H); conditions: application herbicide amount 320 g/ha
Outline: (§2)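 Scoring took place 3 weeks after application, using fixed criteria. Plants had been raised from seed for 14 days at 25 to 30 °C in submerged alluvial soil before a diluted emulsion of the test compound was sprayed uniformly on the leaves.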

Cyperus difformis = test: Test Example 3: herbicidal effect by foliage application, Wagner pot (symbol E); conditions: application herbicide amount 320 g/ha
Outline: as §2

[3] = test system: Echinochloa crus-galli var. crus-galli; test: Test Example 4: herbicidal effect by soil treatment (symbol H); conditions: 320 g/ha
Outline: (§3)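 Seeds were sown in sterilized diluvial soil, covered with about 1.5 cm of soil, and the soil surface was sprayed with a water-diluted emulsion of the compound at a predetermined rate. Plants grew in a greenhouse at 25° C. to 30° C.; effects were scored visually 3 weeks after application.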

Alopecurus myosuroides = test: Test Example 4: herbicidal effect by soil treatment (symbol J); conditions: 320 g/ha
Outline: as §3

Lolium multiflorum Lam. = test: Test Example 4: herbicidal effect by soil treatment (symbol K); conditions: 320 g/ha
Outline: as §3

Amaranthus retroflexus [4] = test: Test Example 4: herbicidal effect by soil treatment (symbol N); conditions: 320 g/ha
Outline: as §3

Chenopodium album [5] = test: Test Example 4: herbicidal effect by soil treatment (symbol O); conditions: 320 g/ha
Outline: as §3

soybean = test: Test Example 4: effect on crop by soil treatment (symbol d); conditions: 320 g/ha
Outline: (§4)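 Plants are raised in a greenhouse (25° C. to 30° C.) from spot-sown seed, which sits under about 1.5 cm of sterilized diluvial soil in a box shared with weed species.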

wheat = test: Test Example 4: effect on crop by soil treatment (symbol e); conditions: 320 g/ha
Outline: as §4

beet [6] = test: Test Example 4: effect on crop by soil treatment (symbol f); conditions: 320 g/ha
Outline: as §4

Setaria viridis = test: Test Example 5: herbicidal effect by foliage application, plastic box (symbol G); conditions: 320 g/ha, 3 weeks after application
Outline: (§5)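 Post-emergence spray; diluvial soil (sterilized), ~1.5 cm seed cover; greenhouse 25–30° C; 14-day-old plants; water-diluted emulsion at predetermined dose; visual score at 3 wk post-treatment.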

Abutilon theophrasti = test: Test Example 5: herbicidal effect by foliage application, plastic box (symbol M); conditions: 320 g/ha, 3 weeks after application
Outline: as §5

Amaranthus retroflexus [7] = test: Test Example 5: herbicidal effect by foliage application, plastic box (symbol N); conditions: 320 g/ha, 3 weeks after application
Outline: as §5

Chenopodium album [8] = test: Test Example 5: herbicidal effect by foliage application, plastic box (symbol O); conditions: 320 g/ha, 3 weeks after application
Outline: as §5

Stellaria media = test: Test Example 5: herbicidal effect by foliage application, plastic box (symbol P); conditions: 320 g/ha, 3 weeks after application
Outline: as §5

Veronica persica = test: Test Example 5: herbicidal effect by foliage application, plastic box (symbol R); conditions: 320 g/ha, 3 weeks after application
Outline: as §5

rice plant = test: Test Example 5: effect on crop by foliage application, plastic box (symbol b); conditions: 320 g/ha, 3 weeks after application
Outline: (§6)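 Greenhouse culture at 25° C. to 30° C. followed spot-like sowing into sterilized diluvial soil, with seed covered by roughly 1.5 cm of soil.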

beet [9] = test: Test Example 5: effect on crop by foliage application, plastic box (symbol f); conditions: 320 g/ha, 3 weeks after application
Outline: as §6

## CC(CC1CC(O)=C(c2c(C)cc(C)cc2C)C1=O)=NOCC1CC1(F)F (centres unmarked) [1-109]
[1]
  Herbicidal effect grade, A: Echinochloa oryzacola Vasing.: 5 (Herbicidal ratio of 90% or more (almost completely withered))
Scirpus juncoides
  Herbicidal effect grade, B: Scirpus juncoides: 5 (Herbicidal ratio of 90% or more (almost completely withered))
[2]
  herbicidal effect on H (Echinochloa crus-galli var. crus-galli), grade 0-5: 5 (Herbicidal ratio of 90% or more (almost completely withered))
Cyperus difformis
  herbicidal effect on E, grade 0-5: 5 (Herbicidal ratio of 90% or more (almost completely withered))
[3]
  H: Echinochloa crus-galli var. crus-galli, herbicidal effect grade: 5 (Herbicidal ratio of 90% or more (almost completely withered))
Alopecurus myosuroides
  J: Alopecurus myosuroides, herbicidal effect grade: 5 (Herbicidal ratio of 90% or more (almost completely withered))
Lolium multiflorum Lam.
  K: Lolium multiflorum Lam., herbicidal effect grade: 5 (Herbicidal ratio of 90% or more (almost completely withered))
Amaranthus retroflexus [4]
  N: Amaranthus retroflexus, herbicidal effect grade: 3 (Herbicidal ratio of 40% or higher and lower than 70%)
Chenopodium album [5]
  O: Chenopodium album, herbicidal effect grade: 0 (Herbicidal ratio of 5% or lower (almost no effect))
soybean
  d: soybean, effect grade on crop: 0 (Herbicidal ratio of 5% or lower (almost no effect))
wheat
  e: wheat, effect grade on crop: 2 (Herbicidal ratio of 20% or higher and lower than 40%)
Beet [6]
  f: beet, effect grade on crop: 0 (Herbicidal ratio of 5% or lower (almost no effect))
Setaria viridis
  G: Setaria viridis, herbicidal effect (criteria 0-5): 5 (Herbicidal ratio of 90% or more (almost completely withered))
Abutilon theophrasti
  M: Abutilon theophrasti, herbicidal effect (criteria 0-5): 3 (Herbicidal ratio of 40% or higher and lower than 70%)
Amaranthus retroflexus [7]
  N: Amaranthus retroflexus, herbicidal effect (criteria 0-5): 0 (Herbicidal ratio of 5% or lower (almost no effect))
Chenopodium album [8]
  O: Chenopodium album, herbicidal effect (criteria 0-5): 3 (Herbicidal ratio of 40% or higher and lower than 70%)
Stellaria media
  P: Stellaria media, herbicidal effect (criteria 0-5): 3 (Herbicidal ratio of 40% or higher and lower than 70%)
Veronica persica
  R: Veronica persica, herbicidal effect (criteria 0-5): 3 (Herbicidal ratio of 40% or higher and lower than 70%)
Rice plant
  b: directly sowed rice plant, effect on crop (criteria 0-5): 5 (Herbicidal ratio of 90% or more (almost completely withered))
Beet [9]
  f: beet, effect on crop (criteria 0-5): 0 (Herbicidal ratio of 5% or lower (almost no effect))

## CC(CC1CC(O)=C(c2c(C)cc(C)cc2C)C1=O)=NOCCS(C)(=O)=O (centres unmarked) [1-110]
[1]
  Herbicidal effect grade, A: Echinochloa oryzacola Vasing.: 2 (Herbicidal ratio of 20% or higher and lower than 40%)
Scirpus juncoides
  Herbicidal effect grade, B: Scirpus juncoides: 0 (Herbicidal ratio of 5% or lower (almost no effect))
[2]
  herbicidal effect on H (Echinochloa crus-galli var. crus-galli), grade 0-5: 5 (Herbicidal ratio of 90% or more (almost completely withered))
Cyperus difformis
  herbicidal effect on E, grade 0-5: 5 (Herbicidal ratio of 90% or more (almost completely withered))
[3]
  H: Echinochloa crus-galli var. crus-galli, herbicidal effect grade: 5 (Herbicidal ratio of 90% or more (almost completely withered))
Alopecurus myosuroides
  J: Alopecurus myosuroides, herbicidal effect grade: 5 (Herbicidal ratio of 90% or more (almost completely withered))
Lolium multiflorum Lam.
  K: Lolium multiflorum Lam., herbicidal effect grade: 5 (Herbicidal ratio of 90% or more (almost completely withered))
Amaranthus retroflexus [4]
  N: Amaranthus retroflexus, herbicidal effect grade: 0 (Herbicidal ratio of 5% or lower (almost no effect))
Chenopodium album [5]
  O: Chenopodium album, herbicidal effect grade: 0 (Herbicidal ratio of 5% or lower (almost no effect))
soybean
  d: soybean, effect grade on crop: 0 (Herbicidal ratio of 5% or lower (almost no effect))
wheat
  e: wheat, effect grade on crop: 5 (Herbicidal ratio of 90% or more (almost completely withered))
Beet [6]
  f: beet, effect grade on crop: 0 (Herbicidal ratio of 5% or lower (almost no effect))
Setaria viridis
  G: Setaria viridis, herbicidal effect (criteria 0-5): 5 (Herbicidal ratio of 90% or more (almost completely withered))
Abutilon theophrasti
  M: Abutilon theophrasti, herbicidal effect (criteria 0-5): 0 (Herbicidal ratio of 5% or lower (almost no effect))
Amaranthus retroflexus [7]
  N: Amaranthus retroflexus, herbicidal effect (criteria 0-5): 0 (Herbicidal ratio of 5% or lower (almost no effect))
Chenopodium album [8]
  O: Chenopodium album, herbicidal effect (criteria 0-5): 2 (Herbicidal ratio of 20% or higher and lower than 40%)
Stellaria media
  P: Stellaria media, herbicidal effect (criteria 0-5): 3 (Herbicidal ratio of 40% or higher and lower than 70%)
Veronica persica
  R: Veronica persica, herbicidal effect (criteria 0-5): 3 (Herbicidal ratio of 40% or higher and lower than 70%)
Rice plant
  b: directly sowed rice plant, effect on crop (criteria 0-5): 5 (Herbicidal ratio of 90% or more (almost completely withered))
Beet [9]
  f: beet, effect on crop (criteria 0-5): 0 (Herbicidal ratio of 5% or lower (almost no effect))

## CC(CC1CC(O)=C(c2c(C)cc(C)cc2C)C1=O)=NOCC1OCCO1 (centres unmarked) [1-111]
[1]
  Herbicidal effect grade, A: Echinochloa oryzacola Vasing.: 5 (Herbicidal ratio of 90% or more (almost completely withered))
Scirpus juncoides
  Herbicidal effect grade, B: Scirpus juncoides: 1 (Herbicidal ratio of 5% or higher and lower than 20%)
[2]
  herbicidal effect on H (Echinochloa crus-galli var. crus-galli), grade 0-5: 5 (Herbicidal ratio of 90% or more (almost completely withered))
Cyperus difformis
  herbicidal effect on E, grade 0-5: 5 (Herbicidal ratio of 90% or more (almost completely withered))
[3]
  H: Echinochloa crus-galli var. crus-galli, herbicidal effect grade: 5 (Herbicidal ratio of 90% or more (almost completely withered))
Alopecurus myosuroides
  J: Alopecurus myosuroides, herbicidal effect grade: 5 (Herbicidal ratio of 90% or more (almost completely withered))
Lolium multiflorum Lam.
  K: Lolium multiflorum Lam., herbicidal effect grade: 5 (Herbicidal ratio of 90% or more (almost completely withered))
Amaranthus retroflexus [4]
  N: Amaranthus retroflexus, herbicidal effect grade: 0 (Herbicidal ratio of 5% or lower (almost no effect))
Chenopodium album [5]
  O: Chenopodium album, herbicidal effect grade: 0 (Herbicidal ratio of 5% or lower (almost no effect))
soybean
  d: soybean, effect grade on crop: 1 (Herbicidal ratio of 5% or higher and lower than 20%)
wheat
  e: wheat, effect grade on crop: 5 (Herbicidal ratio of 90% or more (almost completely withered))
Beet [6]
  f: beet, effect grade on crop: 0 (Herbicidal ratio of 5% or lower (almost no effect))
Setaria viridis
  G: Setaria viridis, herbicidal effect (criteria 0-5): 5 (Herbicidal ratio of 90% or more (almost completely withered))
Abutilon theophrasti
  M: Abutilon theophrasti, herbicidal effect (criteria 0-5): 1 (Herbicidal ratio of 5% or higher and lower than 20%)
Amaranthus retroflexus [7]
  N: Amaranthus retroflexus, herbicidal effect (criteria 0-5): 0 (Herbicidal ratio of 5% or lower (almost no effect))
Chenopodium album [8]
  O: Chenopodium album, herbicidal effect (criteria 0-5): 1 (Herbicidal ratio of 5% or higher and lower than 20%)
Stellaria media
  P: Stellaria media, herbicidal effect (criteria 0-5): 3 (Herbicidal ratio of 40% or higher and lower than 70%)
Veronica persica
  R: Veronica persica, herbicidal effect (criteria 0-5): 1 (Herbicidal ratio of 5% or higher and lower than 20%)
Rice plant
  b: directly sowed rice plant, effect on crop (criteria 0-5): 5 (Herbicidal ratio of 90% or more (almost completely withered))
Beet [9]
  f: beet, effect on crop (criteria 0-5): 0 (Herbicidal ratio of 5% or lower (almost no effect))

## COc1ccc(CON=C(C)CC2CC(O)=C(c3c(C)cc(C)cc3C)C2=O)cc1 (centres unmarked) [1-112]
[1]
  Herbicidal effect grade, A: Echinochloa oryzacola Vasing.: 4 (Herbicidal ratio of 70% or higher and lower than 90%)
Scirpus juncoides
  Herbicidal effect grade, B: Scirpus juncoides: 4 (Herbicidal ratio of 70% or higher and lower than 90%)
[2]
  herbicidal effect on H (Echinochloa crus-galli var. crus-galli), grade 0-5: 5 (Herbicidal ratio of 90% or more (almost completely withered))
Cyperus difformis
  herbicidal effect on E, grade 0-5: 5 (Herbicidal ratio of 90% or more (almost completely withered))
[3]
  H: Echinochloa crus-galli var. crus-galli, herbicidal effect grade: 4 (Herbicidal ratio of 70% or higher and lower than 90%)
Alopecurus myosuroides
  J: Alopecurus myosuroides, herbicidal effect grade: 5 (Herbicidal ratio of 90% or more (almost completely withered))
Lolium multiflorum Lam.
  K: Lolium multiflorum Lam., herbicidal effect grade: 5 (Herbicidal ratio of 90% or more (almost completely withered))
Amaranthus retroflexus [4]
  N: Amaranthus retroflexus, herbicidal effect grade: 0 (Herbicidal ratio of 5% or lower (almost no effect))
Chenopodium album [5]
  O: Chenopodium album, herbicidal effect grade: 0 (Herbicidal ratio of 5% or lower (almost no effect))
soybean
  d: soybean, effect grade on crop: 0 (Herbicidal ratio of 5% or lower (almost no effect))
wheat
  e: wheat, effect grade on crop: 0 (Herbicidal ratio of 5% or lower (almost no effect))
Beet [6]
  f: beet, effect grade on crop: 0 (Herbicidal ratio of 5% or lower (almost no effect))
Setaria viridis
  G: Setaria viridis, herbicidal effect (criteria 0-5): 4 (Herbicidal ratio of 70% or higher and lower than 90%)
Abutilon theophrasti
  M: Abutilon theophrasti, herbicidal effect (criteria 0-5): 1 (Herbicidal ratio of 5% or higher and lower than 20%)
Amaranthus retroflexus [7]
  N: Amaranthus retroflexus, herbicidal effect (criteria 0-5): 0 (Herbicidal ratio of 5% or lower (almost no effect))
Chenopodium album [8]
  O: Chenopodium album, herbicidal effect (criteria 0-5): 3 (Herbicidal ratio of 40% or higher and lower than 70%)
Stellaria media
  P: Stellaria media, herbicidal effect (criteria 0-5): 1 (Herbicidal ratio of 5% or higher and lower than 20%)
Veronica persica
  R: Veronica persica, herbicidal effect (criteria 0-5): 3 (Herbicidal ratio of 40% or higher and lower than 70%)
Rice plant
  b: directly sowed rice plant, effect on crop (criteria 0-5): 5 (Herbicidal ratio of 90% or more (almost completely withered))
Beet [9]
  f: beet, effect on crop (criteria 0-5): 0 (Herbicidal ratio of 5% or lower (almost no effect))
